Data published in patent US20240181081A1, “Compositions and Methods for Treatment of Myotonic Dystrophy Type 1 with CRISPR/SACAS9” (Vertex Pharmaceuticals Incorporated, priority 2021, published 2024).

Columns and labels:
[1] = tested on: CTG repeat expansion in the 3′ UTR of human DMPK gene; test: DOUBLE-cut screening: CTG repeat excision by loss-of-signal ddPCR in primary DM1 patient myoblasts; assay type: cell-based; conditions: sgRNA pair RNP, mean of upstream and downstream ddPCR assays; for % of CTG repeat excision efficiency by ddPCR (DNA-PKi): 3 μM Compound 6 for 48 hrs; for % of CTG repeat excision efficiency by ddPCR (Vehicle): DMSO 48 hrs
Procedure: (§1) RNPs were assembled with recombinant SaCas9 protein (Aldevron) and chemically modified sgRNAs (Synthego) at a ratio of 1:3 (protein:sgRNA). For SINGLE-cut screening, RNP complexes were assembled with 30 pmol of SaCas9 and 90 pmol of sgRNA in P5 Primary Cell Nucleofector Solution (Lonza). After incubation at room temperature for 20 minutes, 10 μL of RNP complex was mixed with two hundred thousand primary myoblasts resuspended in 10 μL of P5 Nucleofector Solution. For DOUBLE-cut screening, RNP complexes were first assembled for individual sgRNAs with 20 pmol of SaCas9 protein and 60 pmol of sgRNAs in 5 μL of P5 Nucleofector Solution. After incubation at room temperature for 20 minutes, the two RNP complexes (one for upstream sgRNA and one for downstream sgRNA) were mixed at 1:1 ratio and then further mixed with two hundred thousand primary myoblasts resuspended in 10 μL of P5 Nucleofector Solution.
(§2) The Nucleofector 96-well Shuttle System (Lonza) was used to deliver the SaCa9/sgRNA RNPs into primary DM1 patient myoblasts using the nucleofection program CM138. Following nucleofection, myoblasts from each well of nucleofection shuttle were split into six wells of the 96-well cell culture plate (Greiner, 655090) coated with matrigel. The first three wells were treated with DMSO for 48 hrs before changing to fresh myoblast growth medium, and the other three wells were treated with 3 μM of DNA-PKi Compound 6 for 48 hrs before changing to fresh myoblast growth medium. 72 hrs post nucleofection, two wells of DMSO-treated myoblasts and two wells of DNA-PKi-treated myoblasts from each nucleofection were harvested for genomic DNA extraction using the Kingfisher Flex purification system (Thermal Fisher), whereas one well of DMSO-treated myoblasts and one well of DNA-PKi-treated myoblasts were stained for RNA foci by FISH staining.
The primers and probes of ddPCR were designed using the online primer design software Primer3Plus (http://www.bioinformatics.nl/cgi-bin/primer3plus/primer3plus.cgi). The two Target primers/probe sets were used to detect CTG repeat excision, and the Reference primers/probe set was used to amplify a region located in Exon 1 of human DMPK gene and it served as a reference control for the Target sets. The 24 μL of ddPCR reaction consisted of 12 μL of Supermix for Probes (no dUTP) (Bio-Rad Laboratories), 1 μL of Reference primers mix (21.6 μM), 1 μL of Reference probe (6 μM), 1 μL of Target primers mix (21.6 μM), 1 μL of Target probe (6 μM), and 8 μL of sample genomic DNA. Droplets were generated using probe oil with the QX200 Droplet Generator (Bio-Rad Laboratories). Droplets were transferred to a 96-well PCR plate, sealed and cycled in a C1000 deep well Thermocycler (Bio-Rad Laboratories) under the following cycling protocol: 1 cycle at 95° C. for 10 min; 40 cycles of 94° C. for 30 sec, and 58° C. for 1 min; 1 cycle at 98° C. for 10 min (for enzyme inactivation). The cycled plate was then transferred and read in the FAM and HEX channels using the Bio-Rad QX200 Droplet Reader (Bio-Rad Laboratories). ddPCR analysis was performed with the Bio-Rad QuantaSoft Pro Software.
Next, DOUBLE-cut screening was performed to assess the efficiency of paired sgRNAs-induced CTG repeat excision and RNA foci reduction. 90 SaCas9 sgRNA pairs formed by one upstream sgRNA and one downstream sgRNA were assembled with recombinant SaCas9 protein into RNP complex and nucleofected into primary DM1 patient myoblasts. Nucleofected myoblasts were treated with either DMSO (vehicle) or 3 μM of Compound 6 (DNA-PKi) for 48 hrs. 72 hrs post nucleofection, myoblasts were subjected to either genomic DNA isolation or RNA foci staining.
One upstream and one downstream loss-of-signal droplet digital PCR (ddPCR) assays were used to determine the efficiency of CTG repeat excision. ddPCR signals would be abolished upon excision of the CTG repeat expansion in these loss-of-signal ddPCR assays. […]

[2] = tested on: CUG RNA foci in primary DM1 patient myoblasts; test: DOUBLE-cut screening: FISH staining of RNA foci in primary DM1 patient myoblasts; assay type: cell-based, human; conditions: sgRNA pair RNP, 72 hrs post nucleofection; for % of CUG foci free nuclei (DNA-PKi): 3 μM Compound 6 for 48 hrs; for % of CUG foci free nuclei (Vehicle): DMSO 48 hrs
Procedure: as §1, §2
Primary myoblasts were fixed for 15 min with 4% paraformaldehyde (PFA) and washed five times with 1×PBS for 10 min each at room temperature. Before staining, cells were permeabilized with 0.5% triton X-100 in 1×PBS for 5 min at room temperature, and then washed with 30% formamide and 2× saline-sodium citrate (SSC) mixture for 10 min at room temperature. Cells were then stained with 1 ng/μL of Cy3-PNA(CAG) 5 probe (PNA Bio, F5001) diluted in 30% formamide, 2×SSC, 2 μg/mL BSA, 66 μg/mL yeast tRNA, and 2 mM vanadyl complex for 15 min at 80° C. Following probe staining, cells were then washed in 30% formamide and 2×SSC mixture for 30 min at 42° C., then washed in 30% formamide and 2×SSC mixture for 30 min at 37° C., and then washed in 1×SSC solution for 10 min at room temperature, and finally washed in 1×PBS for 10 min at room temperature. Cells were next stained with anti-MBNL1 antibody (Santa Cruz, 3A4) diluted in 1% bovine serum albumin (BSA) for overnight at 4° C., and washed twice with 1×PBS for 10 min each at room temperature. Cells were then incubated with the secondary antibody goat […] Alexa 647 (Thermo Fisher, A32728) diluted in 1% BSA for 1 hr at room temperature, and washed twice with 1×PBS for 10 min each at room temperature. Next, cells were stained with Hoechst solution (Thermo Fisher, H3569) at 0.1 mg/ml for 5 min, and washed once with 1×PBS for 5 min. PBS was aspirated and fresh 100 μl of fresh PBS was added to each well. High-throughput acquisition of images was completed with the ImageXpress Micro Confocal High-Content Imaging System (Molecular Devices). RNA foci quantifications were accomplished with a customized analysis module of the MetaXpress program (Molecular Devices).
Next, DOUBLE-cut screening was performed to assess the efficiency of paired sgRNAs-induced CTG repeat excision and RNA foci reduction. 90 SaCas9 sgRNA pairs formed by one upstream sgRNA and one downstream sgRNA were assembled with recombinant SaCas9 protein into RNP complex and nucleofected into primary DM1 patient myoblasts. […]

| Substance | % of CTG repeat excision efficiency by ddPCR (DNA-PKi) [1] | % of CTG repeat excision efficiency by ddPCR (Vehicle) [1] | % of CUG foci free nuclei (DNA-PKi) [2] | % of CUG foci free nuclei (Vehicle) [2] |
| --- | --- | --- | --- | --- |
| SaU7 + SaD12: SaCas9 sgRNA pair, SEQ ID NOs: 7 and 20 (guide 1 CGCGGCCGGCGAACGGGGCTCG; guide 2 TCAGTGCATCCAAAACGTGGAT; listed as DNA, chemistry not fully specified) | 62.84% | 39.71% | 86.06% | 66.41% |
| SaU7 + SaD7: SaCas9 sgRNA pair, SEQ ID NOs: 7 and 15 (guide 1 CGCGGCCGGCGAACGGGGCTCG; guide 2 GGGGCGCGGGATCCCCGAAAAA; listed as DNA, chemistry not fully specified) | 64.88% | 32.55% | 85.03% | 41.68% |
| SaU1 + SaD2: SaCas9 sgRNA pair, SEQ ID NOs: 1 and 10 (guide 1 GCCCCGGAGTCGAAGACAGTTC; guide 2 TCGGCCAGGCTGAGGCCCTGAC; listed as DNA, chemistry not fully specified) | 54.31% | 47.82% | 84.27% | 76.74% |
| SaU8 +SaD13: SaCas9 sgRNA pair, SEQ ID NOs: 8 and 21 (guide 1 GGCTCGAAGGGTCCTTGTAGCC; guide 2 CCCAACAACCCCAATCCACGTT; listed as DNA, chemistry not fully specified) | 51.64% | 29.46% | 77.05% | 43.66% |
| SaU1 + SaD12: SaCas9 sgRNA pair, SEQ ID NOs: 1 and 20 (guide 1 GCCCCGGAGTCGAAGACAGTTC; guide 2 TCAGTGCATCCAAAACGTGGAT; listed as DNA, chemistry not fully specified) | 63.43% | 37.77% | 84.94% | 69.78% |
| SaU7 + SaD19: SaCas9 sgRNA pair, SEQ ID NOs: 7 and 27 (guide 1 CGCGGCCGGCGAACGGGGCTCG; guide 2 AGGACCCCCACCCCCGACCCTC; listed as DNA, chemistry not fully specified) | 56.22% | 28.45% | 81.47% | 42.75% |
| SaU2 + SaD15: SaCas9 sgRNA pair, SEQ ID NOs: 2 and 23 (guide 1 ACTCAGTCTTCCAACGGGGCCC; guide 2 GACAATAAATACCGAGGAATGT; listed as DNA, chemistry not fully specified) | 60.64% | 41.70% | 85.85% | 76.57% |
| SaU8 +SaD11: SaCas9 sgRNA pair, SEQ ID NOs: 8 and 19 (guide 1 GGCTCGAAGGGTCCTTGTAGCC; guide 2 CAAAACGTGGATTGGGGTTGTT; listed as DNA, chemistry not fully specified) | 47.57% | 31.52% | 70.97% | 44.65% |
| SaU7 +SaD20: SaCas9 sgRNA pair, SEQ ID NOs: 7 and 28 (guide 1 CGCGGCCGGCGAACGGGGCTCG; guide 2 AGATGGAGGGCCTTTTATTCGC; listed as DNA, chemistry not fully specified) | 67.93% | 39.72% | 83.24% | 63.33% |
| SaU1 + SaD5: SaCas9 sgRNA pair, SEQ ID NOs: 1 and 13 (guide 1 GCCCCGGAGTCGAAGACAGTTC; guide 2 GGGTTTGGCAAAAGCAAATTTC; listed as DNA, chemistry not fully specified) | 53.67% | 30.65% | 82.90% | 70.23% |
| SaU2 + SaD18: SaCas9 sgRNA pair, SEQ ID NOs: 2 and 26 (guide 1 ACTCAGTCTTCCAACGGGGCCC; guide 2 GGGCCTTTTATTCGCGAGGGTC; listed as DNA, chemistry not fully specified) | 48.16% | 19.28% | 69.93% | 32.87% |
| SaU2 + SaD12: SaCas9 sgRNA pair, SEQ ID NOs: 2 and 20 (guide 1 ACTCAGTCTTCCAACGGGGCCC; guide 2 TCAGTGCATCCAAAACGTGGAT; listed as DNA, chemistry not fully specified) | 58.68% | 36.47% | 83.77% | 76.56% |
| SaU8 + SaD7: SaCas9 sgRNA pair, SEQ ID NOs: 8 and 15 (guide 1 GGCTCGAAGGGTCCTTGTAGCC; guide 2 GGGGCGCGGGATCCCCGAAAAA; listed as DNA, chemistry not fully specified) | 53.42% | 38.19% | 82.90% | 52.92% |
